The results in this text go back to patent US6326516A, “Acetylenic β-sulfonamido and phosphinic acid amide hydroxamic acid TACE inhibitors” (American Cyanamid Company, priority 2000, dated 2001).

The structures appear in SMILES notation. Where two headings read alike, the source gives them in different places.

Test [1] addresses TNF-α converting enzyme (TACE) (Homo sapiens, UniProt P78536). The test is described as follows: TACE inhibition (fluorescent peptidyl substrate). In kind it is biochemical. The protocol: Using 96-well black microtiter plates, each well receives a solution composed of 10 μL TACE (fmal concentration 1 μg/mL), 70 μL Tris buffer, pH 7.4 containing 10% glycerol (final concentration 10 mM), and 10 μL of test compound solution in DMSO (final concentration 1 μM, DMSO concentration <1%) and incubated for 10 minutes at room temperature. The reaction is initiated by addition of a fluorescent peptidyl substrate (final concentration 100 μM) to each well and then shaking on a shaker for 5 sec.
The reaction is read (excitation 340 nm, emission 420 nm) for 10 min. and the increase in fluorescence over time is plotted as a linear line. The slope of the line is calculated and represents the reaction rate.
The linearity of the reaction rate is confirmed (r^2 >0.85). The mean (x±sem) of the control rate is calculated and compared for statistical significance (p<0.05) with drug-treated rates using Dunnett's multiple comparison test. Dose-response relationships can be generate using multiple doses of drug and IC50 values with 95% CI are estimated using linear regression.

The test system of another test is THP-1 cells. Briefly: Human Monocytic THP-1 Cell Differentiation Assay for Soluble Proteins (THP-1 Soluble Protein Assay). Type of test: cell-based. The protocol:
THP-1 cells (from ATCC) are a human monocytic cell line which were obtained from the peripheral blood of a person with acute monocytic leukemia. They can be grown in culture and differentiated into macrophage like cells by stimulation with mitogens.
For the assay, THP-1 cells are seeded from an ATCC stock which was previously grown and frozen back at 5×10^6/ml/vial. One vial is seeded into a T25-flask with 16 mls of RPMI-1640 with glutamax (Gibco) media containing 10% fetal bovine serum, 100 units/ml penicillin, 100 μg/ml streptomycin, and 5×10^-5 M 2-mercapto-ethanol (THP-1 media). Each vial of cells are cultured for about two weeks prior to being used for an assay and then are used for only 4 to 6 weeks to screen compounds. Cells are subcultured on Mondays and Thursdays to a concentration of 1×10^5/ml.
To perform an assay, the THP-1 cells are co-incubated in a 24 well plate with […] of a 24 mg/ml stock of Lipopolysacharide (LPS) (Calbiochem Lot# B13189) at 37° C. in 5% CO2 at a concentration of 1.091×10^6 cells/ml (1.1 ml/well) for a total of 24 hours. At the same time, […] of drug, vehicle or THP-1 media is plated in appropriate wells to give a final volume of 1.2 ml/well. Standard and test compounds are dissolved in DMSO at a concentration of 36 mM and diluted from here to the appropriate concentrations in THP-1 media and added to the wells at the beginning of the incubation period to give final concentrations of […], 300 nM, and 100 nM. Cell exposure to DMSO was limited to 0.1% final concentration. Positive control wells were included in the experiment which had mitogen added but no drug. Vehicle control wells were included as well, which were identical to the positive control wells, except that DMSO was added to give a final concentration of 0.083%. Negative control wells were included in the experiment which had vehicle but no mitogen or drug added to the cells. Compounds can be evaluated for their effect on basal (non-stimulated) shedding of the receptors by replacing the LPS with […] of THP-1 media. Plates are placed into an incubator set at 5% CO2 and at 37° C. After 4 hours of incubation, […] of tissue culture supernatant (TCS) is removed for use in an TNF-α ELISA. Following 24 hours of incubation, […] of TCS is removed and used for analysis in TNF-R p75/80, TNF-R p55/60 and IL-8 ELISAs.
In addition, at the 24 hours timepoint, and the cells for each treatment group are collected by resuspension in 500 μl/well of THP-1 media and transferred into a FACS tube. Two ml/tube of a 0.5 mg/ml stock of propidium iodide (PI) (Boerhinger Mannheim cat. # 1348639) is added. The samples are run on a Becton Dickinson FaxCaliber FLOW cytometry machine and the amount of dye taken up by each cell is measured in the high red wavelength (FL3). Only cells with compromised membranes (dead or dying) can take up PI. The percent of live cells is calculated by the number of cells not stained with PI, divided by the total number of cells in the sample. The viability values calculated for the drug treated groups were compared to the viability value calculated for the vehicle treated mitogen stimulated group ("vehicle positive control") to determine the "percent change from control". This "percent change from control" value is an indicator of drug toxicity.
The quantity of soluble TNF-α, TNF-R p75/80 and TNF-R p55/60 and IL-8 in the TCS of the THP-1 cell cultures are obtained with commercially available ELISAs from R&D Systems, by extrapolation from a standard curve generated with kit standards. The number of cells that either take up or exclude PI are measured by the FLOW cytometry machine and visualized by histograms using commercially available Cytologic software for each treatment group including all controls. […]

A further test has as its target MMP-9 (Homo sapiens, UniProt P14780). The test is described as follows: MMP-9 inhibition (thiopeptide or fluorescent peptide substrate). In kind it is biochemical. The protocol:
(§1) The enzyme activity is measured by the rate of the color increase. The thiopeptide substrate is made up fresh as a 20 mM stock in 100% DMSO and the DTNB is dissolved in 100% DMSO as a 100 mM stock and stored in the dark at room temperature. Both the substrate and DTNB are diluted together to 1 mM with substrate buffer (50 mM HEPES pH 7.5, 5 mM CaCl2) before use. The stock of enzyme is diluted with buffer (50 mM HEPES, pH 7.5, 5 mM CaCl2, 0.02% Brij) to the desired final concentration. The buffer, enzyme, vehicle or inhibitor, and DTNB/substrate are added in this order to a 96 well plate (total reaction volume of 200 μl) and the increase in color is monitored spectrophotometrically for 5 minutes at 405 nm on a plate reader and the increase in color over time is plotted as a linear line.
(§2) Alternatively, a fluorescent peptide substrate is used. In this test procedure, the peptide substrate contains a fluorescent group and a quenching group. Upon cleavage of the substrate by an MMP, the fluorescence that is generated is quantitated on the fluorescence plate reader. The assay is run in HCBC assay buffer (50 mM HEPES, pH 7.0, 5 mM Ca^+2, 0.02% Brij, 0.5% Cysteine), with human recombinant MMP-1, MMP-9, or MMP-13. The substrate is dissolved in methanol and stored frozen in 1 mM aliquots. For the assay, substrate and enzymes are diluted in HCBC buffer to the desired concentrations. Compounds are added to the 96 well plate containing enzyme and the reaction is started by the addition of substrate. The reaction is read (excitation 340 nm, emission 444 nm) for 10 min. and the increase in fluorescence over time is plotted as a linear line.
(§3) For either the thiopeptide or fluorescent peptide test procedures, the slope of the line is calculated and represents the reaction rate. The linearity of the reaction rate is confirmed (r^2 >0.85). The mean (x±sem) of the control rate is calculated and compared for statistical significance (p<0.05) with drug-treated rates using Dunnett's multiple comparison test. Dose-response relationships can be generated using multiple doses of drug and IC50 values with 95% CI are estimated using linear regression.

The target of another test is T1, MMP-1 (Homo sapiens, UniProt P03956).
T1 sequence (P03956 100-469): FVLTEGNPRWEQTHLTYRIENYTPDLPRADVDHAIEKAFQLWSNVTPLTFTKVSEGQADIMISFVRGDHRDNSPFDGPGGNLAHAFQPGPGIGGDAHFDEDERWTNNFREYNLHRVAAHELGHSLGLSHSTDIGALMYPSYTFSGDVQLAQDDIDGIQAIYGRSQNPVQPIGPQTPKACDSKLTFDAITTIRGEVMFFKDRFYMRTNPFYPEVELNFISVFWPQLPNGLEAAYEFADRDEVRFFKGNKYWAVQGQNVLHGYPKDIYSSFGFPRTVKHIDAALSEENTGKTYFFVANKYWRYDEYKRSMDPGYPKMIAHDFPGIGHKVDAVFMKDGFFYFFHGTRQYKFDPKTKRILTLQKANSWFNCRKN
Briefly: MMP-1 inhibition (thiopeptide or fluorescent peptide substrate). In kind it is biochemical. The protocol:
as §1, §2, §3

The target in the next test is MMP-13 (Homo sapiens, UniProt P45452). The test is described as follows: MMP-13 inhibition (thiopeptide or fluorescent peptide substrate). In kind it is biochemical. The protocol: as §1, §2, §3

Chain of TNF-α converting enzyme (TACE) (P78536 215-824): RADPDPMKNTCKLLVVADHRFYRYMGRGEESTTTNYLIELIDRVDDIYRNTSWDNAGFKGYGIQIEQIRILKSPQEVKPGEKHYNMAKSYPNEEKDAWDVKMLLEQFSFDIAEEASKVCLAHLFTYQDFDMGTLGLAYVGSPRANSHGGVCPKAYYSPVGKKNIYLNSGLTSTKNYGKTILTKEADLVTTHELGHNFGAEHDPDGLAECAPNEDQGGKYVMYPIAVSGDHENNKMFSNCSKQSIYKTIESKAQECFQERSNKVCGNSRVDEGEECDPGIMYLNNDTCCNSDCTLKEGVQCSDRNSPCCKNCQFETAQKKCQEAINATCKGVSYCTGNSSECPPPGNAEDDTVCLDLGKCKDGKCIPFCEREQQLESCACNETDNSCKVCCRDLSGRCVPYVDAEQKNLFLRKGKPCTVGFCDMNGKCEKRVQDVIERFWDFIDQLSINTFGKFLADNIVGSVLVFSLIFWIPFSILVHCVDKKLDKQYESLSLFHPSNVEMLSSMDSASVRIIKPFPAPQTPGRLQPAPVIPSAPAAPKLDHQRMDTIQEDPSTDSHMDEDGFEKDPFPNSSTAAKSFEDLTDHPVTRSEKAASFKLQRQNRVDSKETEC
Chain of MMP-9 (P14780 94-707): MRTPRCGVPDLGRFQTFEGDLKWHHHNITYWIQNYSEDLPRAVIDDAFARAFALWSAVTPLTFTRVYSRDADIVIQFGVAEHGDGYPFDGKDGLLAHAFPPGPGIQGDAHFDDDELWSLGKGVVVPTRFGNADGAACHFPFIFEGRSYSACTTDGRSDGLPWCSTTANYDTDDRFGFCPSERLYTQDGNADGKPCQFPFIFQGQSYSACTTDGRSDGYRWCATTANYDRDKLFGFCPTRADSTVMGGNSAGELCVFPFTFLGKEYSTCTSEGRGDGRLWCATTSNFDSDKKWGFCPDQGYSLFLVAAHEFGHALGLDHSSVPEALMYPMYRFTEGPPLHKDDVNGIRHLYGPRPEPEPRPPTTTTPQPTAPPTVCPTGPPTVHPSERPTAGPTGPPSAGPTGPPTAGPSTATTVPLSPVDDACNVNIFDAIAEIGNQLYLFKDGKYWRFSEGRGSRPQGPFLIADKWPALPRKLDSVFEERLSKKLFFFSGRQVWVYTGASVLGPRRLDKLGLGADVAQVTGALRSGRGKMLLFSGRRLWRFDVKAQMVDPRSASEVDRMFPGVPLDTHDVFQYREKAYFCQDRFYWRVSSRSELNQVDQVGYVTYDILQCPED

On to `CC#CCOc1ccc(S(=O)(=O)N[C@H]2CCCC[C@H]2C(=O)NO)cc1` (relative stereo) [Example 32, (Cis)-2-[{[4-(2-butynyloxy)phenyl]sulfonyl}amino)-N-hydroxycyclohexanecarboxamide], for which the 50% inhibitory concentration (IC50) is 36 nM in test [1], about 10 µM against MMP-9 (bounds given in uM), over 10 µM at MMP-1 (bounds given in uM) and 1.74 µM against MMP-13. This compound gave an inhibition at 3 µM in the test with THP-1 cells of 29%.

`CC#CCOc1ccc(S(=O)(=O)N(C)[C@H]2CCCC[C@H]2C(=O)NO)cc1` (relative stereo) [Example 36, (Cis)-2-[{[4-(2-butynyloxy)phenyl]sulfonyl}(methyl)amino]-N-hydroxycyclohexanecarboxamide]: the IC50 in test [1] came out at 53 nM; against MMP-9, 1.32 µM; against MMP-1, 4.23 µM; at MMP-13, 1.82 µM. The inhibition at 3 µM in the test with THP-1 cells was 23%.

Regarding `CC#CCOc1ccc(S(=O)(=O)N(C)[C@@H]2CCCC[C@H]2C(=O)NO)cc1` [Example 17, (1R,2R)-2-[{[4-(2-Butynyloxy)phenyl]sulfonyl}(methyl)amino]-N-hydroxycyclohexanecarboxamide], the 50% inhibitory concentration (IC50) in test [1] was 28 nM; against MMP-9 (bounds given in uM) it was over 10 µM; against MMP-1 (bounds given in uM), over 10 µM; at MMP-13 (bounds given in uM), over 10 µM. In addition, the inhibition at 3 µM with THP-1 cells is 14%.

In the case of `CC#CCOc1ccc(S(=O)(=O)N[C@@H]2CCCC[C@H]2C(=O)NO)cc1` [Example 18, (1R,2R)-2-({[4-(2-Butynyloxy)phenyl]sulfonyl}amino)-N-hydroxycyclohexanecarboxamide], the IC50 was 61 nM in test [1], over 10 µM at MMP-9 (bounds given in uM), over 10 µM at MMP-1 (bounds given in uM) and over 10 µM against MMP-13 (bounds given in uM). In the test with THP-1 cells, this compound displayed an inhibition at 3 µM of 1%.

In test [1], `CC#CCOc1ccc(S(=O)(=O)NCCC(=O)NO)cc1` [Example 21, 3-({[4-(2-Butynyloxy)phenyl]sulfonyl}amino)-N-hydroxypropanamide] registered a concentration for half-maximal inhibition (IC50) of 145 nM. This compound also had an inhibition at 3 µM in the test with THP-1 cells of 0%.

Compound `CC#CCOc1ccc(S(=O)(=O)N(C)CCC(=O)NO)cc1` [Example 24, 3-({[4-(2-Butynyloxy)phenyl]sulfonyl}(methyl)amino)-N-hydroxypropanamide] gave a half-inhibitory concentration (IC50) in test [1] of 73 nM. In addition, 3 µM produced 9% inhibition in the test on THP-1 cells.

For the compound `CC#CCOc1ccc(S(=O)(=O)N[C@H]2CCC[C@H]2C(=O)NO)cc1` [Example 26], the IC50 in test [1] is 15 nM; against MMP-9, 5.06 µM; at MMP-1 (bounds given in uM) it was over 1 µM; against MMP-13, 0.672 µM. This compound also displayed an inhibition at 3 µM with THP-1 cells of 23%.

Consider `CC#CCOc1ccc(S(=O)(=O)N(C)[C@H]2CCC[C@H]2C(=O)NO)cc1` [Example 30, (1R,2S)-2-[{[4-(2-Butynyloxy)phenyl]sulfonyl}(methyl)amino]N-hydroxycyclopentanecarboxamide], for which the 50% inhibitory concentration (IC50) in test [1] stood at 14 nM; on MMP-9 it was 0.383 µM; at MMP-1 it was 2.77 µM; at MMP-13, 0.308 µM. Besides, in the test on THP-1 cells, 3 µM produced 65% inhibition.

With `CC#CCOc1ccc(S(=O)(=O)NC2C3CCC(C3)C2C(=O)NO)cc1` [Example 38, (1R,2R,3S,4R)-(Cis)-3-({[4-(2-butynyloxy)phenyl]sulfonyl}amino)-N-hydroxybicyclo[2.2.1]heptane-2-carboxamide], the half-inhibitory concentration (IC50) in test [1] is 30 nM; at MMP-9 (bounds given in uM) it was over 10 µM; against MMP-1 (bounds given in uM) it was over 10 µM; against MMP-13 (bounds given in uM) it was about 10 µM. The compound further showed an inhibition at 3 µM in the test with THP-1 cells of 9%.

With `CC#CCOc1ccc(S(=O)(=O)N(C)C2C3CCC(C3)C2C(=O)NO)cc1` [Example 42, (1R,2R,3S,4R)-(Cis)-3-({[4-(2-butynyloxy)phenyl]sulfonyl}(methyl)amino)-N-hydroxybicyclo[2.2.1]heptane-2-carboxamide], the IC50 is 62 nM in test [1], about 10 µM on MMP-1 (bounds given in uM) and 1.14 µM against MMP-13. Moreover, testing at 3 µM with THP-1 cells gave an inhibition of 77%.

The term IC50 denotes the point on the concentration scale where inhibition reaches its midpoint. The low end stands for higher potency, the high end for lower potency. By inhibition is commonly meant the relative decrease from the control value, in per cent.
